Drawing on patent publication US9670227B2, “Thienopyrimidine derivatives, a process for their preparation and pharmaceutical compositions containing them” (LES LABORATOIRES SERVIER, priority 2013, dated 2017), this text covers IC50 for 14 molecules.

Each structure is given as a SMILES string.

Experiment [1] deals with H929 multiple myeloma tumour line. Briefly: In vitro cytotoxicity, Microculture Tetrazolium Assay. The format is cell-based. The note with it: Homo sapiens, NCI-H929, 48 h, H929 cells, 48 hours exposure, MTT; read-out: IC50 (μM) MTT H929. On the procedure:
The cytotoxicity studies were carried out on the H929 multiple myeloma tumour line.
The cells are distributed onto microplates and exposed to the test compounds for 48 hours.

Experiment [2] concerns the target Mcl-1 protein (UniProtKB primary accession number: Q07820) (Homo sapiens, UniProt Q07820). The experiment can be described thus: Inhibition of Mcl-1 by fluorescence polarisation, Method 1. The format is binding. The note with it: fluorescence polarisation test; Method 2 values are underlined in the patent (underlining not visible here); read-out: IC50 (M) Mcl-1 FP. Put shortly: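 FP competition, 11-point compound titration in 5% final DMSO; protein and labelled probe at 5 nM and 1 nM final in HEPES/NaCl/Tween 20 buffer, pH 7.4.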

Chain of Mcl-1 protein (Q07820 whole entry): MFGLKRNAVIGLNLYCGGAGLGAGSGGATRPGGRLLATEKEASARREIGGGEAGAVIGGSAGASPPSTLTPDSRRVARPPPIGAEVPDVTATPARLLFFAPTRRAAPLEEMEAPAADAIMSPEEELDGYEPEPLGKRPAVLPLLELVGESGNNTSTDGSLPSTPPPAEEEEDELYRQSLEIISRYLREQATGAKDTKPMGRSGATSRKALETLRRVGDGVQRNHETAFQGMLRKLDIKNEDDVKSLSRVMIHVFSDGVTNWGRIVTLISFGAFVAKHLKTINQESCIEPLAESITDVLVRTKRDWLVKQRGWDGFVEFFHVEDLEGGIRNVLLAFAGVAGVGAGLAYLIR

`Cc1c(-c2c(-c3ccco3)sc3ncnc(OC(Cc4ccccc4OCc4cn(C)cn4)C(=O)O)c23)ccc(OCCN2CCN(C)CC2)c1Cl` [Example 267, (2R)-2-{[(5Sa)-5-{3-chloro-2-methyl-4-[2-(4-methylpiperazin-1-yl)ethoxy]phenyl}-6-(furan-2-yl)thieno[2,3-d]pyrimidin-4-yl]oxy}-3-{2-[(1-methyl-1H-imidazol-4-yl)methoxy]phenyl}propanoic acid]: the IC50 in experiment [1] is 1.6 µM; in experiment [2], 8.8e-09 M.
As to `Cc1cnc(COc2ccccc2CC(Oc2ncnc3sc(-c4ccco4)c(-c4ccc(OCCN5CCN(C)CC5)c(Cl)c4C)c23)C(=O)O)cn1` [Example 268, (2R)-2-{[(5Sa)-5-{3-chloro-2-methyl-4-[2-(4-methylpiperazin-1-yl)ethoxy]phenyl}-6-(furan-2-yl)thieno[2,3-d]pyrimidin-4-yl]oxy}-3-{2-[(5-methylpyrazin-2-yl)methoxy]phenyl}propanoic acid], the IC50 turned out to be 0.086 µM in experiment [1] and 8.2e-09 M in experiment [2].
On to `Cc1c(-c2c(-c3ccco3)sc3ncnc(OC(Cc4ccccc4OCc4cnc(Cl)cn4)C(=O)O)c23)ccc(OCCN2CCN(C)CC2)c1Cl` [Example 269, (2R)-2-{[(5Sa)-5-{3-chloro-2-methyl-4-[2-(4-methylpiperazin-1-yl)ethoxy]phenyl}-6-(furan-2-yl)thieno[2,3-d]pyrimidin-4-yl]oxy}-3-{2-[(5-chloropyrazin-2-yl)methoxy]phenyl}propanoic acid], for which the IC50 in experiment [1] is 0.069 µM; in experiment [2], 1.1e-08 M.
For the molecule `COc1cnc(COc2ccccc2CC(Oc2ncnc3sc(-c4ccco4)c(-c4ccc(OCCN5CCN(C)CC5)c(Cl)c4C)c23)C(=O)O)cn1` [Example 270, (2R)-2-{[(5Sa)-5-{3-chloro-2-methyl-4-[2-(4-methylpiperazin-1-yl)ethoxy]phenyl}-6-(furan-2-yl)thieno[2,3-d]pyrimidin-4-yl]oxy}-3-{2-[(5-methoxypyrazin-2-yl)methoxy]phenyl}propanoic acid], the 50% inhibitory concentration (IC50) in experiment [1] was 0.068 µM; in experiment [2], 1.2e-08 M.
On to `Cc1ncc(COc2ccccc2CC(Oc2ncnc3sc(-c4ccco4)c(-c4ccc(OCCN5CCN(C)CC5)c(Cl)c4C)c23)C(=O)O)cn1` [Example 271, (2R)-2-{[(5Sa)-5-{3-chloro-2-methyl-4-[2-(4-methylpiperazin-1-yl)ethoxy]phenyl}-6-(furan-2-yl)thieno[2,3-d]pyrimidin-4-yl]oxy}-3-{2-[(2-methylpyrimidin-5-yl)methoxy]phenyl}propanoic acid], for which the IC50 came to 0.197 µM in experiment [1] and 1.6e-08 M in experiment [2].
Regarding `Cc1c(-c2c(-c3ccco3)sc3ncnc(OC(Cc4ccccc4OCc4cnc(N5CCCC5)nc4)C(=O)O)c23)ccc(OCCN2CCN(C)CC2)c1Cl` [Example 272, (2R)-2-{[(5Sa)-5-{3-chloro-2-methyl-4-[2-(4-methylpiperazin-1-yl)ethoxy]phenyl}-6-(furan-2-yl)thieno[2,3-d]pyrimidin-4-yl]oxy}-3-(2-{[2-(pyrrolidin-1-yl)pyrimidin-5-yl]methoxy}phenyl)propanoic acid], the results for the 50% inhibitory concentration (IC50) in experiment [1] and in experiment [2] were 0.822 µM and 2.2e-08 M, respectively.
In the case of `Cc1c(-c2c(-c3ccco3)sc3ncnc(OC(Cc4ccccc4OCc4cnc(N5CCOCC5)nc4)C(=O)O)c23)ccc(OCCN2CCN(C)CC2)c1Cl` [Example 273, (2R)-2-{[(5Sa)-5-{3-chloro-2-methyl-4-[2-(4-methylpiperazin-1-yl)ethoxy]phenyl}-6-(furan-2-yl)thieno[2,3-d]pyrimidin-4-yl]oxy}-3-(2-{[2-(morpholin-4-yl)pyrimidin-5-yl]methoxy}phenyl)propanoic acid], the results for the IC50 in experiment [1] and in experiment [2] were 0.905 µM and 9.2e-09 M, respectively.
Turning to `COc1ncc(COc2ccccc2CC(Oc2ncnc3sc(-c4ccco4)c(-c4ccc(OCCN5CCN(C)CC5)c(Cl)c4C)c23)C(=O)O)cn1` [Example 274, (2R)-2-{[(5Sa)-5-{3-chloro-2-methyl-4-[2-(4-methylpiperazin-1-yl)ethoxy]phenyl}-6-(furan-2-yl)thieno[2,3-d]pyrimidin-4-yl]oxy}-3-{2-[(2-methoxypyrimidin-5-yl)methoxy]phenyl}propanoic acid], the figures for the IC50 in experiment [1] and in experiment [2] were 0.131 µM and 7.7e-09 M, respectively.
Regarding `Cc1c(-c2c(-c3ccco3)sc3ncnc(OC(Cc4ccccc4OCc4cnccn4)C(=O)O)c23)ccc(OCCN2CCN(C)CC2)c1Cl` [Example 275, (2R)-2-{[(5Sa)-5-{3-chloro-2-methyl-4-[2-(4-methylpiperazin-1-yl)ethoxy]phenyl}-6-(furan-2-yl)thieno[2,3-d]pyrimidin-4-yl]oxy}-3-[2-(pyrazin-2-ylmethoxy)phenyl]propanoic acid], the half-inhibitory concentration (IC50) came to 0.051 µM in experiment [1] and 4.5e-09 M in experiment [2].
On the same counts, the results for `Cc1c(-c2c(-c3ccco3)sc3ncnc(OC(Cc4ccccc4OCc4cncnc4)C(=O)O)c23)ccc(OCCN2CCN(C)CC2)c1Cl` [Example 277, (2R)-2-{[(5Sa)-5-{3-chloro-2-methyl-4-[2-(4-methylpiperazin-1-yl)ethoxy]phenyl}-6-(furan-2-yl)thieno[2,3-d]pyrimidin-4-yl]oxy}-3-[2-(pyrimidin-5-ylmethoxy)phenyl]propanoic acid] are 0.07 µM and 4.8e-09 M.
The corresponding values for `Cc1c(-c2c(-c3ccco3)sc3ncnc(OC(Cc4ccccc4OCc4cncs4)C(=O)O)c23)ccc(OCCN2CCN(C)CC2)c1Cl` [Example 278, (2R)-2-{[(5Sa)-5-{3-chloro-2-methyl-4-[2-(4-methylpiperazin-1-yl)ethoxy]phenyl}-6-(furan-2-yl)thieno[2,3-d]pyrimidin-4-yl]oxy}-3-[2-(1,3-thiazol-5-ylmethoxy)phenyl]propanoic acid] are 0.202 µM and 6.7e-09 M.
On the same counts, the results for `Cc1c(-c2c(-c3ccco3)sc3ncnc(OC(Cc4ccccc4OCc4cnn(C)c4)C(=O)O)c23)ccc(OCCN2CCN(C)CC2)c1Cl` [Example 279, (2R)-2-{[(5Sa)-5-{3-chloro-2-methyl-4-[2-(4-methylpiperazin-1-yl)ethoxy]phenyl}-6-(furan-2-yl)thieno[2,3-d]pyrimidin-4-yl]oxy}-3-{2-[(1-methyl-1H-pyrazol-4-yl)methoxy]phenyl}propanoic acid] are 0.406 µM and 8e-09 M.
With `Cc1c(-c2c(-c3ccco3)sc3ncnc(OC(Cc4ccccc4OCc4cocn4)C(=O)O)c23)ccc(OCCN2CCN(C)CC2)c1Cl` [Example 280, (2R)-2-{[(5Sa)-5-{3-chloro-2-methyl-4-[2-(4-methylpiperazin-1-yl)ethoxy]phenyl}-6-(furan-2-yl)thieno[2,3-d]pyrimidin-4-yl]oxy}-3-[2-(1,3-oxazol-4-ylmethoxy)phenyl]propanoic acid], the IC50 in experiment [1] worked out at 0.071 µM; in experiment [2], 4e-09 M.
With `Cc1c(-c2c(-c3ccco3)sc3ncnc(OC(Cc4ccccc4OCc4cscn4)C(=O)O)c23)ccc(OCCN2CCN(C)CC2)c1Cl` [Example 281, (2R)-2-{[(5Sa)-5-{3-chloro-2-methyl-4-[2-(4-methylpiperazin-1-yl)ethoxy]phenyl}-6-(furan-2-yl)thieno[2,3-d]pyrimidin-4-yl]oxy}-3-[2-(1,3-thiazol-4-ylmethoxy)phenyl]propanoic acid], the results for the IC50 in experiment [1] and in experiment [2] were 0.081 µM and 7.9e-09 M, respectively.
